Several values for one entry are separate records, joined by “and”; a condition that tells them apart may be missing. Identical values can stand only once. Like-named read-outs stand apart in the source and are kept apart here.
Columns and labels:
[1] = set-up: method as in PMID 12563304; conditions: in rats; cited from earlier work
gastric proton pump = conditions: cited from earlier work
[2] = test system: proton pumps of the kidney and bone; set-up: method as in PMID 17045703; conditions: cited from earlier work
[3] = cited from earlier work
[4] = log P from potentiometric titration; format: physicochemical; conditions: aqueous solution titrated with 0.1 M NaOH
Method: where Coctanol and Cbuffer are the concentrations of the compound in octanol and buffer, respectively. Further, log P values {[…]} were also calculated after conducting potentiometric titration. It was carried out manually using a pH electrode and a variable volume pipette. A solution of the compound (1 mg/ml) was prepared in water and it was titrated with a 0.1 M NaOH solution, pH was measured simultaneously. The equivalence point (pKa- partition coefficient) was estimated from the inflection point in the titration curve from the plot between pH and volume of mL of NaOH solution.

[5] = set-up: method as in PMID 17045703; conditions: cited from earlier work
free acidity = conditions: compared with Omeprazole; cited from earlier work
Aqueous solubility = format: physicochemical
[6] = Pharmacokinetics in serum after 20 mg/kg oral and intravenous doses; format: in vivo, Sprague Dawley rats
Method: As the first step of experiment, an aqueous solution formulation of the compound was administered intravenously to conscious rats via the caudal vein at a dose of 20 mg/kg in a volume of approximately 1.0 ml/kg/rat. Before the experiment, the tail was cleaned with luke warm water and the caudal vein was dilated using xylene. Blood (approx. 1.2 ml) was collected by cardiac puncture under light ether anesthesia at 0.08, 0.25, 0.5, 1, 2, 3, 4, 5, 6, 8, 12, 24 and 48 h post dose. In the second study, conscious rats, fasted overnight, were fed orally at a dose of 20 mg/kg in a volume of 2.0 ml/kg/rat. After drug delivery, blood was collected at the same time points used in the intravenous study. Three rats were utilized for each time point and not more than three or four (later in case of 48 hr) blood samples from each rat, two of which were by intracardiac during the absorption-distribution phase (till 5 hr) and one from the venecava in the terminal phase (6 hr onwards), was withdrawn. Together in two sets of studies, there were 24 rats. (Pl refer to Sampling schedule: Table 1). The total volume of the blood withdrawn within 24 h from cardiac puncture was less than 10% of the total blood volume. Blood was allowed to clot in sealed glass tubes and centrifuged at 2000 rpm. The serum was separated and stored at −60°C until analyses.
Serum concentrations of the compound were determined by HPLC method as described by Srivastava & Gupta (2002) with minor modification. Briefly, to 0.5 ml serum (blank, spiked or test) in 10 ml test tube 1.5 ml of acetonitrile was added and vortex-mixed for 15 sec. The tubes were kept in fridge for 30 min for complete protein precipitation, vortex-mixed for 1 min and centrifuged at 1000 × g for 10 min at 4°C. Supernatant (1.5 ml) was transferred to a 10 ml conical tube without disturbing the lower precipitate pellet and evaporated to dryness in Savant speed vac concentrator. The residue was reconstituted in 0.1 ml of mobile phase, centrifuged at 1000 × g for 10 min and the resulting solution was injected onto the HPLC system.
After oral dose, serum peak concentration (Cmax) and the time to reach peak concentration (Tmax) were derived directly from the original data. The serum concentration-time data from intravenous and oral dosed rats were fitted to WinNonlin programme (version 1.5) to calculate various pharmacokinetic parameters (like AUC, Cl and Vd). The bioavailability for oral dose was calculated using the following equation:
%Bioavailability=AUCoral×Doseiv/AUCiv×Doseoral×100

[7] = Partition coefficient (log P), 1-octanol/phosphate buffer; format: physicochemical; conditions: 1-octanol/20 mM phosphate buffer; octanol partition, 20 mM phosphate buffer pH 7.4, 25°C
Method: Determination of log P was carried out according to the method of Said et al. (1996). 1-Octanol and 20 mM phosphate buffer (pH, 7.4) were mutually saturated for 6 h on magnetic stirrer and separated. A solution of the compound (1 mg/ml) was prepared in […]. Buffer (2 ml) and octanol containing CDRI-85/92 were placed in seven glass tubes and screw capped. These tubes were tumble-mixed for 2 h at 25°C at about 100 inversions/min. The organic and aqueous phases were separated by centrifugation at 2500 rev/min for 20 min. The concentration of the compound in aqueous and organic phase was determined by HPLC after a suitable dilution in mobile phase. The log P was calculated from the following equation:
Log P=logCoctanol/Cbuffer

[8] = method not specified; cited from earlier work
[9] = set-up: method as in PMID 12711165; conditions: alike at acidic and basic pHs; cited from earlier work
[10] = Urinary, fecal and biliary excretion after 20 mg/kg oral and intravenous dose; format: in vivo, Sprague Dawley rats; conditions: for k el: Sprague Dawley, rat; for Excreted in urine, % of the dose: intravenously treated rats, bile duct cannulated as well as noncannulated
Method: Urinary, fecal and biliary excretion of CDRI-85/92 was studied in rats (n=3 per group) after a single 20 mg/kg oral and intravenous dose. Following treatment with CDRI-85/92, urine and feces samples were collected during 24 h with 12 h intervals. Urine was measured and kept in parafilm sealed tubes at −60°C till analyses. Feces samples were dried at 37°C, weighed, ground to fine powder using mortar-pestle and stored in desiccator until analyses. Untreated rats were housed in metabolic cages with food and water ad libitum and their feces and urine collected to serve as blank samples for method development and validation.
For biliary excretion study, bile duct of the rats was surgically cannulated under light ether anesthesia. Rats were dosed with the solution formulation of CDRI-85/92 at 20 mg/kg orally or intravenously and placed in Bollman cages. Bile samples were collected in glass tubes at 0–12 and 12–24 h post dose. The volume of the samples were recorded and stored at −60°C until analyses.
The HPLC method described above was validated for estimation of CDRI-85/92 in urine and bile by assaying the spiked control samples in these biomatrics at three concentration levels (20, 50 and 100 ng/ml of the drug). To have a robust method, inter- and intra-day validation was also conducted (Table 2).
For the preparation of the spiked control feces samples, weighed (25 mg) quantities of drug-free powdered feces were transferred to different glass tubes, fortified with appropriated volume of working dilutions of CDRI-85/92 prepared in methanol, mixed by gentle tapping and allowed to stand at room temperature for drying. The blank, spiked or test samples were moistened with 0.2 ml of KH2PO4 buffer (20 mM, pH 3.0) followed by addition of 1.0 ml of acetonitrile for protein precipitation. The tubes were sealed with parafilm and allowed to stand at room temperature with frequent vortexing. Supernatant were processed as described above for serum samples. For each analytical run, a calibration curve was constructed using peak response against the concentration in calibration standards prepared in same biomatrix.
The amount, cumulative amount and % of the administered dose excreted via urine, bile and feces were calculated.

[11] = test system: glutathione-S-transferases; set-up: method as in PMID 15283303; conditions: formation of trans-isoform; cited from earlier work
[12] = Sprague Dawley, serum, rat, 20 mg/kg IV
[13] = Sprague Dawley, rat serum, 20 mg/kg oral
[14] = IV 20 mg/kg, bile duct cannulated rats
[15] = IV 20 mg/kg, non-cannulated rats
[16] = IV 20 mg/kg, non-cannulated rats, up to 24 h, 20 mg/kg
[17] = oral 20 mg/kg, bile duct cannulated rats
[18] = oral 20 mg/kg, bile duct cannulated rats, up to 24 h, 20 mg/kg
[19] = oral 20 mg/kg, non-cannulated rats
[20] = oral 20 mg/kg, non-cannulated rats, up to 24 h, 20 mg/kg

COc1ccc2[nH]c([S+]([O-])Cc3ncc(C)c(OC)c3C)nc2c1 (stereo not drawn) [Omeprazole, reference compound]
half-life [1]: less than 5 min
Type of proton pump inhibition (gastric proton pump): irreversible proton pump inhibitor

O=C1NC(C(=O)O)/C(=C\Cc2ccccc2)O1 (stereo not drawn) [CDRI-85/92, (5E)-2-oxo-5-(2-phenylethylidene)-1,3-oxazolidine-4-carboxylic acid]
Inhibition of proton pumps of the kidney and bone [2]: not inhibiting
aqueous solubility [3]: > 500 µg/mL
logP [4]: 0.55 ± 0.18
cytoprotective activity [5]: good cytoprotective activity
% inhibition in the free acidity (free acidity): fairly compares with that of Omeprazole
Solubility in formulation (Aqueous solubility; 10 and 20 mg/ml in triple distilled water): completely soluble
Solubility in water (Aqueous solubility; water): freely soluble in water
Cmax ([6]; Sprague Dawley, rat, serum, iv, 20 mg/kg, rat serum, 20 mg/kg IV, read-out: Cmax): 4910 ng/mL
half-life ([6]; Sprague Dawley, rat, serum, iv, 20 mg/kg, rat serum, 20 mg/kg IV, read-out: Elimination t1/2 (converted)): 2 h
Cmax ([6]; Sprague Dawley, rat, serum, po, 20 mg/kg, rat serum, 20 mg/kg oral, read-out: Cmax): 469 ± 45.5 ng/mL
MRT [6, 12]: 1.1 h
Vd [6, 12]: 3.7 L/kg
clearance [6, 12]: 18.3 mL/min
MRT ([6]; Sprague Dawley, serum, rat, 20 mg/kg oral): 3.9 h
bioavailability ([6]; Sprague Dawley, serum, rat, 20 mg/kg oral vs IV, based on AUC): 70.5%
AUC(0-inf) ([6]; Sprague Dawley, rat serum, 20 mg/kg IV): 1250 ng·h/mL
AUC(0-inf) [6, 13]: 882 ng·h/mL
Tmax [6, 13]: 1 h
Elimination t1/2 ([6]; rat serum, 20 mg/kg IV, 20 mg/kg): 2.1 h
Cmax ([6]; rat serum, 20 mg/kg oral, 20 mg/kg): 469.2 ng/mL
Time up to which detected in serum ([6]; rat, 20 mg/kg IV): up to 12 h
MAT (mean absorption time) ([6]; rat, 20 mg/kg oral, MRToral - MRTIV): 2.8 h
Earliest time detectable in serum ([6]; rat, post oral administration 20 mg/kg): 5 min
logP [7]: 0.53 ± 0.11
Inhibition of the gastric proton pump (gastric proton pump): selective and competitive inhibition
log P [8]: 0.5
Ka (absorption rate constant) [9]: 0.12 h⁻¹
% of dose recovered, urine 0–12 h [10, 14]: 16.8%
fe (fraction excreted), urine [10, 14]: 0.90
% of dose recovered, urine total ([10]; IV 20 mg/kg, bile duct cannulated rats, up to 24 h, 20 mg/kg): 16.8 ± 2.7% and 16.8%
% of dose recovered, feces 0–12 h [10, 15]: 0.05%
% of dose recovered, feces 12–24 h [10, 15]: 0.02%
% of dose recovered, urine 0–12 h [10, 15]: 15.7%
fe (fraction excreted), feces [10, 15]: 0.0008
fe (fraction excreted), urine [10, 15]: 0.9
% of dose recovered, feces total [10, 16]: 0.08 ± 0.08% and 0.08%
% of dose recovered, urine total [10, 16]: 15.7 ± 3.3% and 15.7%
k el ([10]; bile, po, 20 mg/kg, oral 20 mg/kg, bile duct cannulated rats, read-out: Ke (excretion rate constant), bile (converted)): 2.78e-05 s⁻¹
k el ([10]; bile, po, 20 mg/kg, oral 20 mg/kg, bile duct cannulated rats, read-out: Kel (elimination rate constant), bile (converted)): 1.33e-05 s⁻¹
k el ([10]; feces, iv, 20 mg/kg, IV 20 mg/kg, non-cannulated rats, read-out: Ke (excretion rate constant), feces (converted)): 4.17e-05 s⁻¹
k el ([10]; feces, iv, 20 mg/kg, IV 20 mg/kg, non-cannulated rats, read-out: Kel (elimination rate constant), feces (converted)): 8.33e-06 s⁻¹
k el ([10]; feces, po, 20 mg/kg, oral 20 mg/kg, non-cannulated rats, read-out: Ke (excretion rate constant), feces (converted)): 1.94e-05 s⁻¹
k el ([10]; feces, po, 20 mg/kg, oral 20 mg/kg, non-cannulated rats, read-out: Kel (elimination rate constant), feces (converted)): 1.67e-05 s⁻¹
k el ([10]; urine, iv, 20 mg/kg, IV 20 mg/kg, bile duct cannulated rats, read-out: Ke (excretion rate constant), urine (converted)): 1.11e-05 s⁻¹
k el ([10]; urine, iv, 20 mg/kg, IV 20 mg/kg, bile duct cannulated rats, read-out: Kel (elimination rate constant), urine (converted)): 1.39e-05 s⁻¹
k el ([10]; urine, iv, 20 mg/kg, IV 20 mg/kg, non-cannulated rats, read-out: Ke (excretion rate constant), urine (converted)): 2.5e-05 s⁻¹
k el ([10]; urine, iv, 20 mg/kg, IV 20 mg/kg, non-cannulated rats, read-out: Kel (elimination rate constant), urine (converted)): 2.78e-05 s⁻¹
k el ([10]; urine, po, 20 mg/kg, oral 20 mg/kg, bile duct cannulated rats, read-out: Ke (excretion rate constant), urine (converted)): 1.67e-05 s⁻¹
k el ([10]; urine, po, 20 mg/kg, oral 20 mg/kg, bile duct cannulated rats, read-out: Kel (elimination rate constant), urine (converted)): 1.94e-05 s⁻¹
k el ([10]; urine, po, 20 mg/kg, oral 20 mg/kg, non-cannulated rats, read-out: Ke (excretion rate constant), urine (converted)): 1.11e-05 s⁻¹
k el ([10]; urine, po, 20 mg/kg, oral 20 mg/kg, non-cannulated rats, read-out: Kel (elimination rate constant), urine (converted)): 1.94e-05 s⁻¹
Excreted in urine, % of the dose [10]: 15%
Excreted in urine, % of the dose ([10]; listed as CDRI 85/92): ~ 15%
% of dose recovered, bile 0–12 h [10, 17]: 0.3%
% of dose recovered, bile 12–24 h [10, 17]: 0.08%
% of dose recovered, urine 0–12 h [10, 17]: 1.5%
% of dose recovered, urine 12–24 h [10, 17]: 0.2%
fe (fraction excreted), bile [10, 17]: 0.0037
fe (fraction excreted), urine [10, 17]: 0.83
% of dose recovered, bile total [10, 18]: 0.37 ± 0.12% and 0.37%
% of dose recovered, urine total [10, 18]: 1.7 ± 0.8% and 1.7%
% of dose recovered, feces 0–12 h [10, 19]: 1.0%
% of dose recovered, feces 12–24 h [10, 19]: 0.2%
% of dose recovered, urine 0–12 h [10, 19]: 3.7%
% of dose recovered, urine 12–24 h [10, 19]: 0.5%
fe (fraction excreted), feces [10, 19]: 0.012
% of dose recovered, feces total [10, 20]: 1.2 ± 0.6% and 1.2%
% of dose recovered, urine total [10, 20]: 4.2 ± 1.1% and 4.2%
Levels of the compound in bile and feces ([10]; rats, 20 mg/kg): insignificant levels
Metabolism by glutathione-S-transferases [11]: very slow metabolism

— publication PMC3293351, “Pharmacokinetics and Excretion Studies on CDRI-85/92, an Antiulcer Proton Pump Inhibitor” (Scientia Pharmaceutica, 2011)
